biological target: PD-L1 His protein / PD-1 Fc protein (Homo sapiens, UniProt Q9NZQ7); experiment: HTRF Assay (PD-1/PD-L1 interaction); assay type: binding; conditions: PD-L1 His 6 nM, PD-1 Fc 6 nM
Method in brief: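 HTRF: PD-L1 His (6 nM final), compound (3-fold dilutions, 20 μM to 0.001 μM final) and PD-1 Fc (6 nM final) preincubated 15 min at room temperature. Anti-human IgG-XL665 and anti-6HIS Tb cryptate (mixed at 6.7 nM and 0.35 nM) then added for 1 h at room temperature before reading.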

Sequence of PD-L1 His protein / PD-1 Fc protein (Q9NZQ7 19-238 limits assumed): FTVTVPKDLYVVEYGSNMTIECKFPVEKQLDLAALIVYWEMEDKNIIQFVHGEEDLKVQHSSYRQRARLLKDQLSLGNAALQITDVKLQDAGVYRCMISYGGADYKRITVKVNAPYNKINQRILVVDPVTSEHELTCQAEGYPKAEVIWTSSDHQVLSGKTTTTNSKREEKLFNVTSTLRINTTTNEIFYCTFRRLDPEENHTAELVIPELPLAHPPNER

| Structure (SMILES) | IC50 [nM] |
| --- | --- |
| O=C1CC[C@@H](CNCc2cnc3cc(-c4cccc(-c5cccc(-c6ccc7c(n6)OCCNC7)c5Cl)c4Cl)ccn3c2=O)N1 [Example 261, (S)-8-(2,2′-Dichloro-3′-(2,3,4,5-tetrahydropyrido[3,2-f][1,4]oxazepin-8-yl)-[1,1′-biphenyl]-3-yl)-3-((((5-oxopyrrolidin-2-yl)methyl)amino)methyl)-4H-pyrido[1,2-a]pyrimidin-4-one] | 250 |
| COc1nc(-c2cccc(-c3cccc(-c4ccn5c(=O)c(CNCC(O)C6CC6)cnc5c4)c3Cl)c2Cl)ccc1CNC[C@@H]1CCC(=O)N1 (mixture of isomers) [Example 274, 3-(((2-Cyclopropyl-2-hydroxyethyl)amino)methyl)-8-(2,2′-dichloro-3′-(6-methoxy-5-(((((S)-5-oxopyrrolidin-2-yl)methyl)amino)methyl)pyridin-2-yl)-[1,1′-biphenyl]-3-yl)-4H-pyrido[1,2-a]pyrimidin-4-one] | 65 |
| COc1nc(-c2cccc(-c3cccc(-c4ccn5c(=O)c(CNC[C@@H]6C[C@H]6CO)cnc5c4)c3Cl)c2Cl)ccc1CNC[C@@H]1CCC(=O)N1 (racemic) [Example 245, 8-(2,2′-dichloro-3′-(6-methoxy-5-(((((S)-5-oxopyrrolidin-2-yl)-methyl)amino)-methyl)-pyridin-2-yl)-[1,1′-biphenyl]-3-yl)-3-(((((1R,2R)-2-(hydroxymethyl)-cyclopropyl)methyl)amino)-methyl)-4H-pyrido[1,2-a]pyrimidin-4-one] | 2.1 |
| Cc1c(COc2cc(OCc3cncc(C#N)c3)c(CN3CC(C(=O)O)C3)cc2Cl)cccc1-c1cccc(-c2ccn3c(=O)c(CN4CC(C(=O)O)C4)ccc3c2)c1C [Example 29, 1-((8-(3′-((4-((3-Carboxyazetidin-1-yl)methyl)-2-chloro-5-((5-cyanopyridin-3-yl)methoxy)phenoxy)methyl)-2,2′-dimethyl-[1,1′-biphenyl]-3-yl)-4-oxo-4H-quinolizin-3-yl)methyl)azetidine-3-carboxylic acid] | 0.9 |
| COc1nc(-c2cccc(-c3cccc(-c4ccc5c(OC)c(CNC[C@@H]6CCC(=O)N6)cc(Cl)c5n4)c3Cl)c2Cl)cc(F)c1CNC[C@@H]1CCC(=O)N1 [Example 398, (S)-5-((((8-Chloro-2-(2,2′-dichloro-3′-(4-fluoro-6-methoxy-5-(((((S)-5-oxopyrrolidin-2-yl)methyl)amino)methyl)pyridin-2-yl)-[1,1′-biphenyl]-3-yl)-5-methoxyquinolin-6-yl)methyl)amino)methyl)pyrrolidin-2-one] | 28 |
| CNc1nc(-c2cccc(-c3cccc(-c4ccn5c(=O)c(CNC[C@@H]6CCC(=O)N6)cnc5c4)c3C)c2Cl)ccc1CNC[C@@H]1CCC(=O)N1 [Example 73, 8-(2′-Chloro-2-methyl-3′-(6-(methylamino)-5-(((((S)-5-oxopyrrolidin-2-yl)methyl)amino)methyl)pyridin-2-yl)-[1,1′-biphenyl]-3-yl)-3-(((((S)-5-oxopyrrolidin-2-yl)methyl)amino)methyl)-4H-pyrido[1,2-a]pyrimidin-4-one] | 6.3 |
| Cc1c(-c2ccn3c(=O)c(CNC[C@@H]4CCC(=O)N4)cnc3c2)cccc1-c1cccc(-c2ccn3c(=O)c(CNC[C@@H]4CCC(=O)N4)cnc3c2)c1C [Example 37, 8,8′-(2,2′-Dimethyl-[1,1′-biphenyl]-3,3′-diyl)bis(3-(((((S)-5-oxopyrrolidin-2-yl)methyl)amino)methyl)-4H-pyrido[1,2-a]pyrimidin-4-one)] | 140 |
| COc1nc(-c2cccc(-c3cccc(-c4ccn5c(=O)c(CNCC6(O)CCC6)cnc5c4)c3Cl)c2Cl)ccc1CNC[C@@H]1CCC(=O)N1 [Example 233, (S)-8-(2,2′-Dichloro-3′-(6-methoxy-5-((((5-oxopyrrolidin-2-yl)methyl)amino)methyl)pyridin-2-yl)-[1,1′-biphenyl]-3-yl)-3-((((1-hydroxycyclobutyl)methyl)amino)methyl)-4H-pyrido[1,2-a]pyrimidin-4-one] | 0.2 |
| COc1nc(-c2cccc(-c3cccc(-c4ccn5c(=O)c(CNCC(C)(C)CO)cnc5c4)c3Cl)c2Cl)ccc1CNC[C@@H]1CCC(=O)N1 [Example 273, (S)-8-(2,2′-dichloro-3′-(6-methoxy-5-((((5-oxopyrrolidin-2-yl)methyl)amino)methyl)pyridin-2-yl)-[1,1′-biphenyl]-3-yl)-3-(((3-hydroxy-2,2-dimethylpropyl)amino)methyl)-4H-pyrido[1,2-a]pyrimidin-4-one] | 4.2 |
| COC(=O)C[C@H](O)CNCc1cnc2cc(-c3cccc(-c4cccc(-c5cc(F)c(CNC[C@@H]6CCC(=O)N6)c(OC)n5)c4Cl)c3Cl)ccn2c1=O [Example 271, Methyl (3S)-4-[[8-[2-chloro-3-[2-chloro-3-[4-fluoro-6-methoxy-5-[[[(2S)-5-oxopyrrolidin-2-yl]methylamino]methyl]-2-pyridyl]phenyl]phenyl]-4-oxo-pyrido[1,2-a]pyrimidin-3-yl]methylamino]-3-hydroxy-butanoate] | 0.1 |
| COc1nc(-c2cccc(-c3cccc(-c4ccn5c(=O)c(CNC[C@H](C)OC)cnc5c4)c3Cl)c2Cl)ccc1CNC[C@@H]1CCC(=O)N1 [Example 302, 8-[2-Chloro-3-[2-chloro-3-[6-methoxy-5-[[[(2S)-5-oxopyrrolidin-2-yl]methylamino]methyl]-2-pyridyl]phenyl]phenyl]-3-[[[(2S)-2-methoxypropyl]amino]methyl]pyrido[1,2-a]pyrimidin-4-one] | 35 |
| COc1nc(-c2cccc(-c3cccc(-c4ccn5c(=O)c(CNC6CC7(CCNC7=O)C6)cnc5c4)c3Cl)c2Cl)ccc1CNC[C@@H]1CCC(=O)N1 (single isomer, unassigned) [Example 249] | 0.6 |
| COc1cc(-c2cccc(-c3cccc(-c4ccn5c(=O)c(CNC[C@@H]6CCC(=O)N6)cnc5c4)c3Cl)c2Cl)cnc1CNC[C@@H]1CCC(=O)N1 [Example 360, 8-(2,2′-Dichloro-3′-(5-methoxy-6-(((((S)-5-oxopyrrolidin-2-yl)-methyl)-amino)methyl)-pyridin-3-yl)-[1,1′-biphenyl]-3-yl)-3-(((((S)-5-oxopyrrolidin-2-yl)methyl)amino)methyl)-4H-pyrido[1,2-a]pyrimidin-4-one] | 0.7 |
| COc1nc(-c2cccc(-c3cccc(-c4ccn5c(=O)c(CNC6CCN(C(C)=O)CC6)cnc5c4)c3Cl)c2Cl)ccc1CNC1CCN(C(C)=O)CC1 [Example 322, 3-[[(1-Acetyl-4-piperidyl)amino]methyl]-8-[3-[3-[5-[[(1-acetyl-4-piperidyl)amino]methyl]-6-methoxy-2-pyridyl]-2-chloro-phenyl]-2-chloro-phenyl]pyrido[1,2-a]pyrimidin-4-one] | 0.1 |
| COc1nc(-c2cccc(-c3cccc(-c4cc(C)n5c(=O)c(CNC[C@@H]6CCC(=O)N6)cnc5c4)c3Cl)c2Cl)ccc1CNC[C@@H]1CCC(=O)N1 [Example 183, 8-(2,2′-Dichloro-3′-(6-methoxy-5-(((((S)-5-oxopyrrolidin-2-yl)methyl)amino)methyl)pyridin-2-yl)-[1,1′-biphenyl]-3-yl)-6-methyl-3-(((((S)-5-oxopyrrolidin-2-yl)methyl)amino)methyl)-4H-pyrido[1,2-a]pyrimidin-4-one] | 44 |
| Cc1c(-c2ccn3c(=O)c(CNC[C@@H]4CCC(=O)N4)cnc3c2)cccc1-c1cccc(-c2ccc3c(c2)CC(NC(=O)CN)C3)c1Cl (mixture of isomers) [Example 43, 2-Amino-N-(5-(2-chloro-2′-methyl-3′-(4-oxo-3-(((((S)-5-oxopyrrolidin-2-yl)methyl)amino)methyl)-4H-pyrido[1,2-a]pyrimidin-8-yl)-[1,1′-biphenyl]-3-yl)-2,3-dihydro-1H-inden-2-yl)acetamide] | 270 |
| Cc1c(COc2cc(OCc3cncc(C#N)c3)c(CN3CCCC[C@H]3C(=O)O)cc2Cl)cccc1-c1cccc(-c2ccn3c(=O)c(CN4CCCC[C@H]4C(=O)O)cnc3c2)c1C [Example 11, (S)-1-((8-(3′-((4-(((S)-2-Carboxypiperidin-1-yl)methyl)-2-chloro-5-((5-cyanopyridin-3-yl)methoxy)phenoxy)methyl)-2,2′-dimethyl-[1,1′-biphenyl]-3-yl)-4-oxo-4H-pyrido[1,2-a]pyrimidin-3-yl)methyl)piperidine-2-carboxylic acid] | 0.6 |
| COc1nc(-c2cccc(-c3cccc(-c4ccn5c(=O)c(CNCC(F)(F)F)cnc5c4)c3Cl)c2Cl)ccc1CNC[C@@H]1CCC(=O)N1 [Example 303, 8-[2-Chloro-3-[2-chloro-3-[6-methoxy-5-[[[(2S)-5-oxopyrrolidin-2-yl]methylamino]methyl]-2-pyridyl]phenyl]phenyl]-3-[(2,2,2-trifluoroethylamino)methyl]pyrido[1,2-a]pyrimidin-4-one] | 0.4 |
| CNc1nc(-c2cccc(-c3cccc(-c4ccn5c(=O)c(CNC[C@@H]6CCC(=O)N6)cnc5c4)c3Cl)c2Cl)ccc1CNC[C@@H]1CCC(=O)N1 [Example 89, 8-(2,2′-Dichloro-3′-(6-(methylamino)-5-(((((S)-5-oxopyrrolidin-2-yl)methyl)amino)methyl)pyridin-2-yl)-[1,1′-biphenyl]-3-yl)-3-(((((S)-5-oxopyrrolidin-2-yl)methyl)amino)methyl)-4H-pyrido[1,2-a]pyrimidin-4-one] | 3.5 |
| COc1nc(-c2cccc(-c3cccc(-c4ccn5c(=O)c(CNC[C@@H]6CCC(=O)N6)ccc5c4)c3Cl)c2Cl)ccc1CNC[C@@H]1CCC(=O)N1 [Example 85, 8-(2,2′-Dichloro-3′-(6-methoxy-5-(((((S)-5-oxopyrrolidin-2-yl)methyl)amino)methyl)pyridin-2-yl)-[1,1′-biphenyl]-3-yl)-3-(((((S)-5-oxopyrrolidin-2-yl)methyl)amino)methyl)-4H-quinolizin-4-one] | 2.5 |
| COc1nc(-c2cccc(-c3cccc(-c4ccn5c(=O)c(CN6CCCC[C@H]6C(=O)O)cnc5c4)c3Cl)c2Cl)ccc1CNC[C@@H]1CCC(=O)N1 [Example 129, (S)-1-((8-(2,2′-Dichloro-3′-(6-methoxy-5-(((((S)-5-oxopyrrolidin-2-yl)methyl)amino)methyl)pyridin-2-yl)-[1,1′-biphenyl]-3-yl)-4-oxo-4H-pyrido[1,2-a]pyrimidin-3-yl)methyl)piperidine-2-carboxylic acid] | 0.3 |

Reference: patent US20230143612A1 (Arbutus Biopharma Corporation, priority 2020, published 2023)
